Reference: ChEMBL document CHEMBL1649495, “Sitafloxacin activity against Helicobacter pylori isolates, including those with gyrA mutations” (2009)
≈ marks a conversion by molar mass, not a printed value.

Experiments:
Assay type in all cases: functional
[1] = tested on: Helicobacter pylori; experiment: Antibacterial activity against Helicobacter pylori clinical isolates harboring gyrA Asn87 mutant gene by agar dilution method
[2] = tested on: Helicobacter pylori; experiment: Antibacterial activity against Helicobacter pylori clinical isolates harboring gyrA Asp91 mutant gene by agar dilution method
[3] = tested on: Helicobacter pylori; experiment: Antibacterial activity against Helicobacter pylori clinical isolates harboring gyrA gene by agar dilution method
[4] = tested on: Helicobacter pylori; experiment: Antibacterial activity against Helicobacter pylori clinical isolates harboring mutation in gyrA gene by agar dilution method

| Compound | MIC50 [1] [µg/mL] | MIC90 [1] [µg/mL] | MIC50 [2] [µg/mL] | MIC90 [2] [µg/mL] | MIC50 [3] [µg/mL] | MIC90 [3] [µg/mL] | MIC [4] [µg/mL] |
| --- | --- | --- | --- | --- | --- | --- | --- |
| C[C@H]1NCc2cc(-c3ccc4c(=O)c(C(=O)O)cn(C5CC5)c4c3OC(F)F)ccc21 [GARENOXACIN] | 0.5 (≈ 1.17 µM) | 1 (≈ 2.35 µM) | 0.5 (≈ 1.17 µM) | 1 (≈ 2.35 µM) | 0.03 (≈ 0.0704 µM) | 0.06 (≈ 0.141 µM) | ≤ 0.015 |
| C[C@H]1COc2c(N3CCN(C)CC3)c(F)cc3c(=O)c(C(=O)O)cn1c23.C[C@H]1COc2c(N3CCN(C)CC3)c(F)cc3c(=O)c(C(=O)O)cn1c23.O [LEVOFLOXACIN] | 8 | 16 | 4 | 8 | 0.25 | 0.25 | 0.12 |
| N[C@@H]1CN(c2c(F)cc3c(=O)c(C(=O)O)cn([C@@H]4C[C@@H]4F)c3c2Cl)CC12CC2 [SITAFLOXACIN ANHYDROUS] | 0.25 (≈ 0.61 µM) | 0.5 (≈ 1.22 µM) | 0.12 (≈ 0.293 µM) | 0.25 (≈ 0.61 µM) | 0.03 (≈ 0.0732 µM) | 0.03 (≈ 0.0732 µM) | ≤ 0.015 |
